From PubChem BioAssay (NCI)
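Assay format: 96-well plates, 48-hour exposure. GI50 is the concentration that inhibits growth by half. TGI marks complete inhibition of growth.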

Assays:
Assay in all cases: NCI tumour cell line growth inhibition, 48 h
K-562 leukemia = test system: K-562 leukemia
HL-60(TB) leukemia = test system: HL-60(TB) leukemia
U251 CNS = test system: U251 CNS
RXF 393 renal = test system: RXF 393 renal
LOX IMVI melanoma = test system: LOX IMVI melanoma
SF-295 CNS = test system: SF-295 CNS
HCT-15 colon = test system: HCT-15 colon
A549 NSCLC = test system: A549 NSCLC
A498 renal = test system: A498 renal
KM12 colon = test system: KM12 colon
SK-MEL-5 melanoma = test system: SK-MEL-5 melanoma
ACHN renal = test system: ACHN renal
OVCAR-3 ovarian = test system: OVCAR-3 ovarian
T-47D breast = test system: T-47D breast
TK-10 renal = test system: TK-10 renal
OVCAR-8 ovarian = test system: OVCAR-8 ovarian
EKVX NSCLC = test system: EKVX NSCLC
786-0 renal = test system: 786-0 renal
PC-3 prostate = test system: PC-3 prostate
NCI-H460 lung = test system: NCI-H460 lung
COLO 205 colon = test system: COLO 205 colon
SK-MEL-2 melanoma = test system: SK-MEL-2 melanoma
SNB-75 CNS = test system: SNB-75 CNS
MDA-MB-435 = test system: MDA-MB-435
SW-620 colon = test system: SW-620 colon
IGROV1 ovarian = test system: IGROV1 ovarian
MALME-3M melanoma = test system: MALME-3M melanoma
NCI-H23 lung = test system: NCI-H23 lung
CCRF-CEM leukemia = test system: CCRF-CEM leukemia
DU-145 prostate = test system: DU-145 prostate
HCT-116 colon = test system: HCT-116 colon
HCC-2998 colon = test system: HCC-2998 colon
OVCAR-4 ovarian = test system: OVCAR-4 ovarian
MCF7 breast = test system: MCF7 breast
CAKI-1 renal = test system: CAKI-1 renal
MDA-MB-231 breast = test system: MDA-MB-231 breast
HOP-62 NSCLC = test system: HOP-62 NSCLC
NCI-H522 lung = test system: NCI-H522 lung
NCI-H226 lung = test system: NCI-H226 lung
SF-268 CNS = test system: SF-268 CNS
RPMI-8226 leukemia = test system: RPMI-8226 leukemia
MOLT-4 leukemia = test system: MOLT-4 leukemia
OVCAR-5 ovarian = test system: OVCAR-5 ovarian
HT29 colon = test system: HT29 colon
HS 578T breast = test system: HS 578T breast
BT-549 breast = test system: BT-549 breast
M14 melanoma = test system: M14 melanoma
SN12C renal = test system: SN12C renal
SNB-19 CNS = test system: SNB-19 CNS
HOP-92 NSCLC = test system: HOP-92 NSCLC
SF-539 CNS = test system: SF-539 CNS
SK-OV-3 ovarian = test system: SK-OV-3 ovarian
UO-31 renal = test system: UO-31 renal
UACC-257 melanoma = test system: UACC-257 melanoma
SR leukemia = test system: SR leukemia
UACC-62 melanoma = test system: UACC-62 melanoma
NCI/ADR-RES ovarian = test system: NCI/ADR-RES ovarian

CNc1ccc(C(=O)CC(O)CCC(C)C2OC(=O)CC(O)CC(=O)CC(O)CC(O)CC(O)CC(O)CC3(O)CC(O)C(C(=O)NCCN4CCCCC4)C(CC(OC4OC(C)C(O)C(N)C4O)/C=C/C=C/C=C/C=C\C=C/C=C/C=C/C2C)O3)cc1 (stereo not drawn)
TGI (K-562 leukemia): > 100 µM
TGI (HL-60(TB) leukemia): > 100 µM

COc1ccc(C(=O)c2ccc([As]=O)cc2)cc1 (stereo not drawn)
GI50 (U251 CNS): 21.8 nM
TGI (U251 CNS): 61.5 nM
GI50 (RXF 393 renal): 59 nM
TGI (RXF 393 renal): 188 nM
GI50 (LOX IMVI melanoma): 23.7 nM
TGI (LOX IMVI melanoma): 75 nM
GI50 (SF-295 CNS): 146 nM
TGI (SF-295 CNS): 285 nM
GI50 (HCT-15 colon): 25.9 nM
TGI (HCT-15 colon): 110 nM
GI50 (A549 NSCLC): 158 nM
TGI (A549 NSCLC): 348 nM
GI50 (A498 renal): 164 nM
TGI (A498 renal): 305 nM
GI50 (KM12 colon): 80.1 nM
TGI (KM12 colon): 219 nM
GI50 (SK-MEL-5 melanoma): 140 nM
TGI (SK-MEL-5 melanoma): 288 nM
GI50 (ACHN renal): 33.3 nM
TGI (ACHN renal): 119 nM
GI50 (OVCAR-3 ovarian): 34.5 nM
TGI (OVCAR-3 ovarian): 114 nM
GI50 (T-47D breast): 28.8 nM
TGI (T-47D breast): 204 nM
GI50 (TK-10 renal): 57 nM
TGI (TK-10 renal): 180 nM
GI50 (OVCAR-8 ovarian): 61.7 nM
TGI (OVCAR-8 ovarian): 203 nM
GI50 (EKVX NSCLC): 132 nM
TGI (EKVX NSCLC): 293 nM
GI50 (786-0 renal): 60.5 nM
TGI (786-0 renal): 191 nM
GI50 (PC-3 prostate): 56 nM
TGI (PC-3 prostate): 185 nM
GI50 (NCI-H460 lung): 172 nM
TGI (NCI-H460 lung): 416 nM
GI50 (COLO 205 colon): 41 nM
TGI (COLO 205 colon): 166 nM
GI50 (SK-MEL-2 melanoma): 173 nM
TGI (SK-MEL-2 melanoma): 373 nM
GI50 (SNB-75 CNS): 126 nM
TGI (SNB-75 CNS): 417 nM
GI50 (MDA-MB-435): 121 nM
TGI (MDA-MB-435): 254 nM
GI50 (SW-620 colon): 31.3 nM
TGI (SW-620 colon): 111 nM
GI50 (IGROV1 ovarian): 36.3 nM
TGI (IGROV1 ovarian): 158 nM
GI50 (MALME-3M melanoma): 28.1 nM
TGI (MALME-3M melanoma): 86.1 nM
GI50 (NCI-H23 lung): 108 nM
TGI (NCI-H23 lung): 322 nM
GI50 (CCRF-CEM leukemia): 29.6 nM
TGI (CCRF-CEM leukemia): 171 nM
GI50 (DU-145 prostate): 73.5 nM
TGI (DU-145 prostate): 198 nM
GI50 (HCT-116 colon): 38.7 nM
TGI (HCT-116 colon): 154 nM
GI50 (HCC-2998 colon): 113 nM
TGI (HCC-2998 colon): 246 nM
GI50 (OVCAR-4 ovarian): 45.4 nM
TGI (OVCAR-4 ovarian): 182 nM
GI50 (MCF7 breast): 21.2 nM
TGI (MCF7 breast): 136 nM
GI50 (CAKI-1 renal): 64 nM
TGI (CAKI-1 renal): 201 nM
GI50 (MDA-MB-231 breast): 87 nM
TGI (MDA-MB-231 breast): 242 nM
GI50 (HOP-62 NSCLC): 41.2 nM
TGI (HOP-62 NSCLC): 183 nM
GI50 (NCI-H522 lung): 90.2 nM
TGI (NCI-H522 lung): 254 nM
GI50 (NCI-H226 lung): 169 nM
TGI (NCI-H226 lung): 459 nM
GI50 (SF-268 CNS): 34.8 nM
TGI (SF-268 CNS): 136 nM
GI50 (HL-60(TB) leukemia): 106 nM
TGI (HL-60(TB) leukemia): 0.346 µM
GI50 (RPMI-8226 leukemia): 22.4 nM
TGI (RPMI-8226 leukemia): 64.3 nM
GI50 (MOLT-4 leukemia): 38.9 nM
TGI (MOLT-4 leukemia): 265 nM
GI50 (OVCAR-5 ovarian): 144 nM
TGI (OVCAR-5 ovarian): 292 nM
GI50 (HT29 colon): 48.9 nM
TGI (HT29 colon): 236 nM
GI50 (HS 578T breast): 149 nM
TGI (HS 578T breast): 586 nM
GI50 (BT-549 breast): 166 nM
TGI (BT-549 breast): 315 nM
GI50 (M14 melanoma): 62.9 nM
TGI (M14 melanoma): 218 nM
GI50 (SN12C renal): 41.8 nM
TGI (SN12C renal): 199 nM
GI50 (SNB-19 CNS): 93.2 nM
TGI (SNB-19 CNS): 236 nM
GI50 (HOP-92 NSCLC): 130 nM
TGI (HOP-92 NSCLC): 262 nM
GI50 (SF-539 CNS): 43.2 nM
TGI (SF-539 CNS): 163 nM
GI50 (SK-OV-3 ovarian): 181 nM
TGI (SK-OV-3 ovarian): 346 nM
GI50 (UO-31 renal): 69.6 nM
TGI (UO-31 renal): 204 nM

CO[C@]12C[C@H](CNC(=O)c3ccc[nH]3)O[C@H]1NC(=O)N2
TGI (U251 CNS): > 100000 nM
TGI (K-562 leukemia): > 100 µM
TGI (LOX IMVI melanoma): > 100000 nM
TGI (SF-295 CNS): > 100000 nM
TGI (HCT-15 colon): > 100000 nM
TGI (A549 NSCLC): > 100000 nM
TGI (A498 renal): > 100000 nM
TGI (KM12 colon): > 100000 nM
TGI (SK-MEL-5 melanoma): > 100000 nM
TGI (UACC-257 melanoma): > 100 µM
TGI (ACHN renal): > 100000 nM
TGI (OVCAR-3 ovarian): > 100000 nM
TGI (T-47D breast): > 100000 nM
TGI (SR leukemia): > 100 µM
TGI (TK-10 renal): > 100000 nM
TGI (OVCAR-8 ovarian): > 100000 nM
TGI (EKVX NSCLC): > 100000 nM
TGI (786-0 renal): > 100000 nM
TGI (PC-3 prostate): > 100000 nM
TGI (NCI-H460 lung): > 100000 nM
TGI (COLO 205 colon): > 100000 nM
TGI (SK-MEL-2 melanoma): > 100000 nM
TGI (MDA-MB-435): > 100000 nM
TGI (UACC-62 melanoma): > 100 µM
TGI (SW-620 colon): > 100000 nM
TGI (IGROV1 ovarian): > 100000 nM
TGI (MALME-3M melanoma): > 100000 nM
TGI (NCI-H23 lung): > 100000 nM
TGI (CCRF-CEM leukemia): > 100000 nM
TGI (DU-145 prostate): > 100000 nM
TGI (HCT-116 colon): > 100000 nM
TGI (MCF7 breast): > 100000 nM
TGI (CAKI-1 renal): > 100000 nM
TGI (MDA-MB-231 breast): > 100000 nM
TGI (HOP-62 NSCLC): > 100000 nM
TGI (NCI-H522 lung): > 100000 nM
TGI (NCI-H226 lung): > 100000 nM
TGI (SF-268 CNS): > 100000 nM
TGI (HL-60(TB) leukemia): > 100 µM
TGI (RPMI-8226 leukemia): > 100000 nM
TGI (NCI/ADR-RES ovarian): > 100 µM
TGI (OVCAR-5 ovarian): > 100000 nM
TGI (HT29 colon): > 100000 nM
TGI (HS 578T breast): > 100000 nM
TGI (BT-549 breast): > 100000 nM
TGI (M14 melanoma): > 100000 nM
TGI (SN12C renal): > 100000 nM
TGI (SNB-19 CNS): > 100000 nM
TGI (HOP-92 NSCLC): > 100000 nM
TGI (SF-539 CNS): > 100000 nM
TGI (SK-OV-3 ovarian): > 100000 nM
TGI (UO-31 renal): > 100000 nM
